One molecule from patent publication US6380244B2, “Nutritional and therapeutic uses of 3-hydroxyalkanoate oligomers” (Metabolix, Inc., priority 1998, dated 2002) can be followed below.

Data set [1] in a line: Single oral bolus of triolide in a fasted dog, blood ketone bodies and glucose (Example 2). The data set is classed as in vivo, mongrel dog. The method, then:
A mongrel dog (21 kg) was fasted overnight and given an oral bolus of triolide (R,R,R)-4,8,12-trimethyl-1,5,9-trioxadodeca-2,6,10-trione, 10 g) in gelatin. This amount of triolide is equivalent to 5% of the daily caloric requirement. Blood was sampled at 0, 15, 30, 45, and 60 minutes and every half hour thereafter for a total of six hours.
The blood samples were analyzed for glucose via enzymatic assay, and for acetoacetate and 3-hydroxybutyrate via GC-mass spectrometry (GC-MS) assay. As shown by FIG. 1, within 90 minutes, the blood concentrations of 3-hydroxybutyrate and acetoacetate reached 0.3 and 0.05 mM, and the total ketone bodies in the blood were 0.36 mM. After the fourth hour, the total ketone body concentration remained elevated at 0.24 mM. Glucose concentration in the blood dropped from 6.5 mM to 5 mM during the experiment.

Data set [2] can be described thus: Repeated feeding of meat plus triolide to a fasted dog, blood ketone bodies, glucose, tolerability (Example 3). It is filed as in vivo, mongrel dog. The method, then: A mongrel dog (25.5 kg) was fasted overnight and fed a mixture of meat (111 g) and triolide ((R,R,R)-4,8,12-trimethyl-1,5,9-trioxadodeca-2,6,10-trione, 23.5 g). This amount of triolide is equivalent to 10% of the daily caloric requirement. Identical amounts of meat and triolide were given at 0, 120, 360 and 540 minutes. Blood was sampled at regular intervals for 12 hours.
The blood samples were analyzed for acetoacetate and 3-hydroxybutyrate. Within 30 minutes, the concentrations of 3-hydroxybutyrate and acetoacetate reached 0.85 and 0.15 mM, respectively. The total ketone bodies in the blood were 1.0 mM. After the third feeding of triolide, total ketone body concentration remained elevated and steady at about 0.6 mM. Glucose concentration in the blood remained within the normal range of 3.1 to 5.9 mM. […] By the next morning, the ketone body concentration in the blood had returned to the normal value of 0.02 mM.

Setting [3] is: four feedings of 23.5 g triolide, throughout the experiment.
Where [4] appears, read: meat + triolide 23.5 g, within 30 minutes.

Molecules are shown by their SMILES.

For the molecule `C[C@@H]1CC(=O)O[C@H](C)CC(=O)O[C@H](C)CC(=O)O1` [triolide, (R,R,R)-4,8,12-Trimethyl-1,5,9-Trioxadodeca-2,6,10-Trione], the “blood concentration of 3-hydroxybutyrate” value in data set [1] (oral bolus 10 g triolide in gelatin (5% of daily caloric requirement), within 90 minutes, GC-MS) turned out to be 300 µM; in data set [2] (meat 111 g + triolide 23.5 g (10% of daily caloric requirement) at 0, 120, 360, 540 min, within 30 minutes), 850 µM. Moreover, the “total ketone bodies in the blood” value was 0.36 mM in data set [1] (oral bolus 10 g triolide in gelatin, within 90 minutes) and 1.0 mM in data set [2] (setting [4]). The “blood concentration of acetoacetate” value in data set [1] (oral bolus 10 g triolide in gelatin, within 90 minutes, GC-MS) turned out to be 50 µM; in data set [2] (setting [4]), 150 µM. Moreover, the “total ketone body concentration” value in data set [1] (oral bolus 10 g triolide, after the fourth hour, remained elevated) is on record as 0.24 mM; in data set [2] (after the third feeding of triolide, elevated and steady), “about 0.6 mM”. Also, the “ketone body concentration in the blood” value in data set [2] (by the next morning, returned to the normal value) amounted to 0.02 mM. In addition, the “other clinical chemistry profiles” value in data set [2] (setting [3]) is given as “remained normal”. Further, the “signs of distress, unusual behavior, abnormal bodily functions (diarrhea, nausea, vomiting, frequent urination)” value in data set [2] (setting [3]) is on record as “no signs of distress”.
